Results on 3 compounds are retold here after patent publication US8722849B2, “Polypeptides” (Novo Nordisk A/S, priority 2011, dated 2014).

Structures are written as SMILES. pEC50: −log10 of the molar value. In brackets after ≈: the same amount, converted by molar mass. Where two headings read alike, the source gives them in different places. Starred links: 1 amine or outer side, 2 acyl side, 3 side chain; linkers in the order of their positions; H or OH if unused. Positions of bridges follow the written chain, without caps; N, C: chain ends. Residues, ends and D or L forms follow the SMILES beside them. *: point of attachment. C20 diacid = O=C(O)CCCCCCCCCCCCCCCCCCC(=O)*; γGlu = O=C(O)[C@H](CCC(=O)[*:2])N[*:1] A value given as a limit tells only on which side of the number the result lay.

Data set [1] can be described thus: Assay (III) ThT fibrillation assay for physical stability. Format: physicochemical. The conditions noted are these: ThT fibrillation assay. A digest of the protocol:
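Freshly prepared formulations, pH-adjusted, with 1 μM ThT; four or eight replicates incubated at 37 °C under 960 rpm orbital shaking. Fluorescence (ex 444/em 485 nm) read every 20 min; […]. Peptide concentration measured by RP-HPLC before and after the run.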

Data set [2] deals with T1, human calcitonin receptor (Homo sapiens, UniProt P30988).
T1 construct: expressed in transfected cells; host or cells: BHK570
T1 sequence (P30988 25-474): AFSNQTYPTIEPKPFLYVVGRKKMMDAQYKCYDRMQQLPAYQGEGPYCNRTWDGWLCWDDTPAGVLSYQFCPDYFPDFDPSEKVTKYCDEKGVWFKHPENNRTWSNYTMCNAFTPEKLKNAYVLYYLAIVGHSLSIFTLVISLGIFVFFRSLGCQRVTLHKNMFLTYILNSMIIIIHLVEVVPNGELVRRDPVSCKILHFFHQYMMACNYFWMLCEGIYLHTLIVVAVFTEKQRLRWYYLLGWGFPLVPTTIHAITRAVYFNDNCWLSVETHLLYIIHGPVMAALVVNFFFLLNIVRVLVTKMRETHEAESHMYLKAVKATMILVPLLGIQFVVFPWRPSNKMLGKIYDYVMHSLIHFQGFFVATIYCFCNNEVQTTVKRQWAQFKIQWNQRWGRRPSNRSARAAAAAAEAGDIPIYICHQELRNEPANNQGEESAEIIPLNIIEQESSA
In words: Assay (II)a functional CRE-luciferase assay, human calcitonin receptor. The class given is cell-based.

A short description of data set [3]: Assay (IV) determination of solubility. The class given is physicochemical. The method in brief: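 Polypeptide in water (~500 nmol/ml) mixed 1:1 with 100 mM glycylglycine (pH 3.0–5.0) or bistrispropane (pH 6.0–8.0) buffers. Held 18 hours at room temperature, then centrifuged. Polypeptide remaining in solution quantified by HPLC.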
The target in data set [4] is T2, human amylin receptor (amylin 3(a) receptor: human calcitonin receptor + RAMP-3) (Homo sapiens, UniProt O60896+P30988).
T2 construct: expressed in transfected cells; host or cells: BHK570
T2 sequence (P30988 25-474): T1 sequence (P30988 25-474)
T2 sequence (O60896 24-148 partner): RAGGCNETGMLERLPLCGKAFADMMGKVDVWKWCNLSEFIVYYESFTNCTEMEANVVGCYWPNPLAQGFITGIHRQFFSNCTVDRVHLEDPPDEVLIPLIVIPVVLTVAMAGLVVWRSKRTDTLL
Kind of data set: Assay (II)a functional CRE-luciferase assay, human amylin receptor. The class given is cell-based.

Where [5] appears, read: Table 7, human calcitonin (CTa) receptor.
Where [6] appears, read: bistrispropane buffer, pH 6, pH 6.0, read-out: Solubility pH 6.0.
Setting [7] is: bistrispropane buffer, pH 6.5, pH 6.5, read-out: Solubility pH 6.5.
The mark [8] stands for this setting: bistrispropane buffer, pH 7, pH 7.0, read-out: Solubility pH 7.0.
Where [9] appears, read: bistrispropane buffer, pH 7.5, pH 7.5, read-out: Solubility pH 7.5.
Setting [10] is: bistrispropane buffer, pH 8, pH 8.0, read-out: Solubility pH 8.0.
Setting [11] is: glycylglycine buffer, pH 3, pH 3.0, read-out: Solubility pH 3.0.
The mark [12] stands for this setting: glycylglycine buffer, pH 4, pH 4.0, 18 hours at room temperature, Table 2, read-out: Solubility pH 4.0.
The mark [13] stands for this setting: glycylglycine buffer, pH 4, pH 4.0, read-out: Solubility pH 4.0.
Where [14] appears, read: glycylglycine buffer, pH 5, pH 5.0, read-out: Solubility pH 5.0.
[15] abbreviates: Table 2, BHK amylin 3(a)-receptor/CRE-luc cells.

Take `CC[C@H](C)[C@H](NC(=O)[C@@H]1CCCN1C(=O)CNC(=O)[C@H](Cc1ccccc1)NC(=O)[C@H](CC(N)=O)NC(=O)[C@H](CC(N)=O)NC(=O)[C@H](CO)NC(=O)[C@H](CO)NC(=O)[C@H](Cc1c[nH]cn1)NC(=O)[C@H](Cc1c[nH]cn1)NC(=O)[C@H](CC(C)C)NC(=O)[C@H](Cc1ccccc1)NC(=O)[C@H](CCC(=O)O)NC(=O)[C@H](C)NC(=O)[C@H](CC(C)C)NC(=O)[C@H](CCCNC(=N)N)NC(=O)[C@H](CCC(N)=O)NC(=O)[C@@H](NC(=O)[C@H](C)NC(=O)[C@@H]1CSSC[C@H](NC(=O)[C@H](CCCCN)NC(=O)CC[C@H](NC(=O)CCCCCCCCCCCCCCCCCCC(=O)O)C(=O)O)C(=O)N[C@@H](CC(N)=O)C(=O)N[C@@H]([C@@H](C)O)C(=O)N[C@@H](C)C(=O)N[C@@H]([C@@H](C)O)C(=O)N1)[C@@H](C)O)C(=O)N[C@@H](CC(C)C)C(=O)N1CCC[C@H]1C(=O)N1CCC[C@H]1C(=O)N[C@H](C(=O)N[C@@H](CC(N)=O)C(=O)N[C@H](C(=O)NCC(=O)N[C@@H](Cc1c[nH]cn1)C(=O)N[C@@H](CC(N)=O)C(=O)N[C@H](C(=O)N[C@@H](Cc1ccc(O)cc1)C(N)=O)[C@@H](C)O)C(C)C)[C@@H](C)O` [Example 115, N-alpha-[(S)-4-Carboxy-4-(19-carboxynonadecanoylamino)butyryl]-[Glu14,His17,His34]-pramlintide] ({C20 diacid-γGlu}-KCNTATCATQRLAEFLHHSSNNFGPILPPTNVGHNTY-NH2; disulfide 2-7 (inferred); C-terminus assumed): the “ThT pH 4.0 lag time” value in data set [1] is listed as over 45 h. Further, in data set [1], the “ThT pH 4.0 lag time (h)” value is over 45 h. Moreover, the figures for the negative logarithm of the EC50 (pEC50) in data set [2] (setting [5]) and in data set [4] (setting [15]) were 9.94 and 9.89, respectively. The solubility (commonly the concentration that dissolves in the medium under given conditions) at 18 h in data set [3] (setting [6]) was over 200 µM; in data set [3] (setting [7]), 73 µM (≈ 329 µg/mL); in data set [3] (setting [8]) it was 22 µM (≈ 99.1 µg/mL); in data set [3] (setting [9]), 46 µM (≈ 207 µg/mL); in data set [3] (setting [10]), 115 µM (≈ 518 µg/mL); in data set [3] (setting [11]), over 200 µM. The solubility at 18 h in data set [3] (setting [12]), in data set [3] (setting [13]) and in data set [3] (setting [14]) was over 200 µM in each case.

For the compound `CC[C@H](C)[C@H](NC(=O)[C@@H]1CCCN1C(=O)CNC(=O)[C@H](Cc1ccccc1)NC(=O)[C@H](CC(N)=O)NC(=O)[C@H](CC(N)=O)NC(=O)[C@H](CO)NC(=O)[C@H](CO)NC(=O)[C@H](Cc1c[nH]cn1)NC(=O)[C@H](Cc1c[nH]cn1)NC(=O)[C@H](CC(C)C)NC(=O)[C@H](Cc1ccccc1)NC(=O)[C@H](CCC(=O)O)NC(=O)[C@H](C)NC(=O)[C@H](CC(C)C)NC(=O)[C@H](CCCNC(=N)N)NC(=O)[C@H](CCC(N)=O)NC(=O)[C@@H](NC(=O)[C@H](C)NC(=O)[C@@H]1CSSC[C@H](NC(=O)[C@H](CCCCN)NC(=O)CC[C@H](NC(=O)CCCCCCCCCCCCCCCCCCC(=O)O)C(=O)O)C(=O)N[C@@H](CC(N)=O)C(=O)N[C@@H]([C@@H](C)O)C(=O)N[C@@H](C)C(=O)N[C@@H]([C@@H](C)O)C(=O)N1)[C@@H](C)O)C(=O)N[C@@H](CC(C)C)C(=O)N1CCC[C@H]1C(=O)N1CCC[C@H]1C(=O)N[C@H](C(=O)N[C@@H](CC(N)=O)C(=O)N[C@@H](Cc1c[nH]cn1)C(=O)NCC(=O)N[C@@H](CO)C(=O)N[C@@H](CC(N)=O)C(=O)N[C@H](C(=O)N[C@@H](Cc1ccc(O)cc1)C(N)=O)[C@@H](C)O)[C@@H](C)O` [Example 116, N-alpha-[(S)-4-Carboxy-4-(19-carboxynonadecanoylamino)butyryl]-[Glu14,His17,His32]-pramlintide] ({C20 diacid-γGlu}-KCNTATCATQRLAEFLHHSSNNFGPILPPTNHGSNTY-NH2; disulfide 2-7 (inferred); C-terminus assumed), in data set [1], the “ThT pH 4.0 lag time” value is on record as over 45 h. Also, in data set [1], the “ThT pH 4.0 lag time (h)” value was over 45 h. The pEC50 (commonly the negative decadic logarithm of the EC50, by convention in mol/L) is 9.91 in data set [2] (setting [5]) and 9.31 in data set [4] (setting [15]). Further, the solubility at 18 h in data set [3] (setting [6]) was over 200 µM; in data set [3] (setting [7]), 120 µM (≈ 539 µg/mL); in data set [3] (setting [8]) it was 44 µM (≈ 198 µg/mL); in data set [3] (setting [9]), 79 µM (≈ 355 µg/mL); in data set [3] (setting [10]), 173 µM (≈ 777 µg/mL); in data set [3] (setting [11]), over 200 µM. Also, the solubility at 18 h in data set [3] (setting [12]), in data set [3] (setting [13]) and in data set [3] (setting [14]) was over 200 µM throughout.

As for `CC[C@H](C)[C@H](NC(=O)[C@@H]1CCCN1C(=O)CNC(=O)[C@H](Cc1ccccc1)NC(=O)[C@H](CC(N)=O)NC(=O)[C@H](CC(N)=O)NC(=O)[C@H](CO)NC(=O)[C@H](CO)NC(=O)[C@H](Cc1c[nH]cn1)NC(=O)[C@@H](NC(=O)[C@H](CC(C)C)NC(=O)[C@H](Cc1ccccc1)NC(=O)[C@H](CC(N)=O)NC(=O)[C@H](C)NC(=O)[C@H](CC(C)C)NC(=O)[C@H](CCCNC(=N)N)NC(=O)[C@H](CCC(N)=O)NC(=O)[C@@H](NC(=O)[C@H](C)NC(=O)[C@@H]1CSSC[C@H](NC(=O)[C@H](CCC(=O)O)NC(=O)[C@H](CCCNC(=N)N)NC(=O)[C@H](CCC(=O)O)NC(=O)[C@H](CCC(=O)O)NC(=O)CCCCCCCCCCCCCCCCCCC(=O)O)C(=O)N[C@@H](CC(N)=O)C(=O)N[C@@H]([C@@H](C)O)C(=O)N[C@@H](C)C(=O)N[C@@H]([C@@H](C)O)C(=O)N1)[C@@H](C)O)C(C)C)C(=O)N[C@@H](CC(C)C)C(=O)N1CCC[C@H]1C(=O)N1CCC[C@H]1C(=O)N[C@H](C(=O)N[C@@H](CC(N)=O)C(=O)N[C@H](C(=O)NCC(=O)N[C@@H](CO)C(=O)N[C@@H](CC(N)=O)C(=O)N[C@H](C(=O)N1CCC[C@H]1C(N)=O)[C@@H](C)O)C(C)C)[C@@H](C)O` [Example 121, N-alpha-(19-carboxynonadecanoyl)-Glu-Glu-Arg-[Glu1,Pro37]-pramlintide] ({C20 diacid}-EERECNTATCATQRLANFLVHSSNNFGPILPPTNVGSNTP-NH2; disulfide 5-10 (inferred); C-terminus assumed), the “ThT pH 4.0 lag time (h)” value in data set [1] is recorded as 0.3 h. In addition, the pEC50 in data set [2] (Table 11, read-out: CTa receptor human EC50) is 10.21; in data set [4] (Table 11), 10.35. The solubility at 18 h in data set [3] (setting [6]) is 155 µM (≈ 717 µg/mL); in data set [3] (setting [7]) it was 127 µM (≈ 587 µg/mL); in data set [3] (setting [8]) it was 54 µM (≈ 250 µg/mL); in data set [3] (setting [9]), 157 µM (≈ 726 µg/mL); in data set [3] (setting [10]) it was 117 µM (≈ 541 µg/mL); in data set [3] (setting [11]), over 200 µM. The solubility at 18 h in data set [3] (setting [13]) and in data set [3] (setting [14]) was over 200 µM in each case.
